# Test results from patent US20240269144A1, “METHODS AND KITS FOR THE DETECTION OF MALIGNANCIES” (H. LEE MOFFITT CANCER CENTER AND RESEARCH INSTITUTE, INC., priority 2021, published 2024).
# Like-named read-outs stand apart in the source and are kept apart here.
# B1: mogamulizumab: anti-CCR4, FDA approved breakthrough therapy for CTCL (antibody, chains of the INN, looked up, V domains shown)
# VH: EVQLVESGGDLVQPGRSLRLSCAASGFIFSNYGMSWVRQAPGKGLEWVATISSASTYSYYPDSVKGRFTISRDNAKNSLYLQMNSLRVEDTALYYCGRHSDGNFAFGYWGQGTLVTVSS
# VL: DVLMTQSPLSLPVTPGEPASISCRSSRNIVHINGDTYLEWYLQKPGQSPQLLIYKVSNRFSGVPDRFSGSGSGTDFTLKISRVEAEDVGVYYCFQGSLLPWTFGQGTKVEIK
# Legend:
# malignant T cells = assay: EVOS drug assay (Cytolight Rapid Green / Cytox Red) on malignant T cells; assay type: cell-based
# Protocol: FIGS. 9A, 9B, 9C, and 9D show the effects various anti-cancer agents on malignant T cells. Cells are stained green with the Cytolight Rapid Green Dye—freely pass thru the membrane, however, once inside the dye is transformed into cell-impermeant probe transferred to daughter cells. Once the cells have been stained the dye is removed. Stains live cells. Then the Cytox Red is added and left in the media. Cytox Red moves inside the cells when the cell membrane is compromised. Assays were read at 0, 6, 12, 18 and 24 hrs. Each timepoint is analyzed separately for the designated concentration of Palbociclib (CDK4/6 inhibitor)(9A), Omacetaxine mepesuccinate (HHT)(9B), CX5461 (rRNA synthesis inhibitor)(9C), or BTZO-1 (MIF inhibitor)(9D).
# To see the effect of various inhibitors on malignant T cells, we an EVOS drug assay (FIG. 9) measuring varying concentrations and time points for Palbociclib (CDK4/6 inhibitor)(FIG. 9A), Omacetaxine mepesuccinate (HHT)(FIG. 9B), CX5461 (rRNA synthesis inhibitor)(FIG. 9C), and BTZO-1 (MIF inhibitor)(FIG. 9D). By 12 hours, killing of malignant T cells was observed reaching a maximum for all drugs by […].
# [1] = tested on: acute myeloid leukemia and mantle cell lymphoma tumor cells; settings: pre-clinical models of acute myeloid leukemia and mantle cell lymphoma; cited from earlier work
# [2] = tested on: T-cell lymphoma lines Myla (MF), HH (MF—leukemic phase), Hu78 (SS); assay: OXPHOS inhibitor apoptosis assay (Annexin V/PI), T-cell lymphoma cell lines; assay type: cell-based
# [3] = tested on: T-cell lymphoma lines Myla (MF), HH (MF—leukemic phase), Hu78 (SS)
# Protocol: MYC inhibitor (MYCi975) cell proliferation assay (right). Indicated cell lines were seeded on 96-well plates and treated with different dose of MYCi975 for 5 days. At day 5, cells were incubated with MTS reagent following manufacture's protocol (Promega Cat #G3580). Absorbance at OD490 nm was recorded and percentage of growth were normalized to vehicle control. Half maximal inhibitory concentration (IC50) was calculated based on curve fitting result using non-linear regression function of GraphPad Prism 8. The symbol represents the mean. The error bars represent the mean±s.e.m. n=12 (MyLa and Jurkat); n=8 (HH, MJ, Hu78).
# To determine the sensitivity of CTCL and other T cell lymphomas to OXPHOS and MYC inhibition, we performed pharmacologic perturbation assays using IACS10759 and MYCi975 in MF and other TCL cell lines (FIG. 4F).
# Established T-cell lymphoma lines were used for drug assays, including Myla (MF; Sigma Aldrich Cat #95051032), HH (MF—leukemic phase; ATCC Cat #CRL-2105), and Hu78 (SS; ATCC Cat #TIB-161), Jurkat (ATLL) and MJ (ATLL; ATCC Cat #8294).
# MYC = MYC (Homo sapiens, UniProt P01106); settings: cited from earlier work
# Sequence of MYC (P01106 whole entry, species assumed): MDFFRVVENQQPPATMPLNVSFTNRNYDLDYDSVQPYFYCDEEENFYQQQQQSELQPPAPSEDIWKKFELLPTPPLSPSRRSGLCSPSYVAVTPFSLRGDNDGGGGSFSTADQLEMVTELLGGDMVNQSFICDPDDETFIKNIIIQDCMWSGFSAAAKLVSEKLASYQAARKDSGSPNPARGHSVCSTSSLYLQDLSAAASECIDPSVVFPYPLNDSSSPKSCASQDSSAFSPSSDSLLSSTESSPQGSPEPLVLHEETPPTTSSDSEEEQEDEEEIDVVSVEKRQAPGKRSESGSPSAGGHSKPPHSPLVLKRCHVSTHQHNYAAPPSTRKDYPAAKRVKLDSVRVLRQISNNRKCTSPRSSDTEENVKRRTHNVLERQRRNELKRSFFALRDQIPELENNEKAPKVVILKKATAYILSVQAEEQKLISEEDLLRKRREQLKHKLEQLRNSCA
# CTCL = settings: MAVORIC trial, cited from earlier work
# [4] = malignant T cells, at maximum killing
# [5] = in vitro pharmacologic studies, CTCL cell lines
molecule,measurement,setting,value
O=c1nc(-c2ccccn2)sc2ccccc12 [BTZO-1],target cells remaining viable after treatment,malignant T cells,50%
Cc1cnc(CNC(=O)c2c(=O)c3ccc(N4CCCN(C)CC4)nc3n3c2sc2ccccc23)cn1 [CX5461],target cells remaining viable after treatment,malignant T cells; [4],60-70%
"COC(=O)C[C@](O)(CCCC(C)(C)O)C(=O)O[C@@H]1C(OC)=C[C@]23CCCN2CCc2cc4c(cc2[C@H]13)OCO4 [HHT, Omacetaxine mepesuccinate]",target cells remaining viable after treatment,malignant T cells; [4],50%
Cc1nc(-c2nc(-c3ccc(OC(F)(F)F)cc3)no2)nn1Cc1cccc(N2CCC(S(C)(=O)=O)CC2)c1 [IACS-010759],effect of OXPHOS inhibition on tumor cells,[1],inhibition of tumor cell proliferation and induction of apoptosis
same,sensitivity to IACS-010759 as assessed by apoptosis,"[2]; Myla, HH, Hu78, particularly for Myla, 8 nM, 5 days, Annexin V+PI+",low nanomolar sensitivity
same,anti-tumor activity in vitro (OXPHOS inhibitor),[2]; [5],potent anti-tumor activity
Cn1nc(C(F)(F)F)cc1-c1ccc(OCc2ccc(Cl)cc2)c(-c2ccc(Cl)c(C(F)(F)F)c2)c1O [MYCi975],"sensitivity to MYCi975 as assessed by cell proliferation, cell viability and cytotoxicity (MTS assay)",[3],low micromolar sensitivity
same,anti-tumor activity in vitro (MYC inhibitor),[3]; [5],potent anti-tumor activity
same,preclinical in-vivo activity against MYC,MYC,potent preclinical in-vivo activity against MYC
CC(=O)c1c(C)c2cnc(Nc3ccc(N4CCNCC4)cn3)nc2n(C2CCCC2)c1=O [Palbociclib],target cells remaining viable after treatment,malignant T cells; [4],50%
B1,"responses in blood, % of patients",CTCL; blood compartment,49.2%
same,"responses in skin, % of patients",CTCL; skin compartment,27.4%
same,ORR,"CTCL; mogamulizumab monotherapy, at ≥4 months (b5), at 4 months",25.3%
same,median PFS,CTCL; mogamulizumab monotherapy,7.8 months
